In patent US7981903B2, “2-[2-{phenylamino}-1H-pyrrolo[2,3-D]pyrimidin-4-yl)amino] benzamide derivatives as IGF-1R inhibitors for the treatment of cancer” (GlaxoSmithKline LLC, priority 2007, dated 2011):
pIC50: −log10 of the molar value.

How the values were obtained:
[1] = target: ALK (Homo sapiens, UniProt Q9UM73); assay: ALK enzyme assay (HTRF); assay type: biochemical; details: 0.25 nM ALK, 15.0 μM ATP, values given as pIC50 category
In short: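 Isolated ALK phosphorylates a biotinylated tyrosine peptide, 120 min at 20° C; anti-phosphotyrosine Eu-cryptate/streptavidin-XL665 HTRF read after 60 min with EDTA-containing detection mix.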

[2] = system: NCI-H929; assay: Inhibition of cell proliferation (CellTiter-Glo or InCell analyzer), NCI-H929; assay type: cell-based; details: Homo sapiens, 72 h / 3 days, values given as IC50 category
In short: In one

[3] = target: T1, NIH-3T3 cells overexpressing human IR (Homo sapiens, UniProt P06213); assay: IR cellular autophosphorylation (DELFIA); assay type: cell-based; details: 2 h compound, insulin 3 ug/ml for 15 minutes, IC50 category
T1 construct: expressed in transfected cells; host or cells: NIH-3T3 (mouse fibroblasts)
In short: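 Receptor autophosphorylation measured by DELFIA, capturing IGF-1R or IRβ and detecting with europium anti-pTyr, reported as percent of IGF-1- or insulin-stimulated signal. Compounds (30 uM to 1.5 nM) added 2 h before ligand, then 15 min stimulation (IGF-1 30 ng/ml or insulin 3 ug/ml).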

[4] = system: Colo205; assay: Inhibition of cell proliferation (CellTiter-Glo or InCell analyzer), Colo205; assay type: cell-based; details: Homo sapiens, COLO 205, 72 h / 3 days, values given as IC50 category
In short: In one

T1 sequence (P06213 28-1382): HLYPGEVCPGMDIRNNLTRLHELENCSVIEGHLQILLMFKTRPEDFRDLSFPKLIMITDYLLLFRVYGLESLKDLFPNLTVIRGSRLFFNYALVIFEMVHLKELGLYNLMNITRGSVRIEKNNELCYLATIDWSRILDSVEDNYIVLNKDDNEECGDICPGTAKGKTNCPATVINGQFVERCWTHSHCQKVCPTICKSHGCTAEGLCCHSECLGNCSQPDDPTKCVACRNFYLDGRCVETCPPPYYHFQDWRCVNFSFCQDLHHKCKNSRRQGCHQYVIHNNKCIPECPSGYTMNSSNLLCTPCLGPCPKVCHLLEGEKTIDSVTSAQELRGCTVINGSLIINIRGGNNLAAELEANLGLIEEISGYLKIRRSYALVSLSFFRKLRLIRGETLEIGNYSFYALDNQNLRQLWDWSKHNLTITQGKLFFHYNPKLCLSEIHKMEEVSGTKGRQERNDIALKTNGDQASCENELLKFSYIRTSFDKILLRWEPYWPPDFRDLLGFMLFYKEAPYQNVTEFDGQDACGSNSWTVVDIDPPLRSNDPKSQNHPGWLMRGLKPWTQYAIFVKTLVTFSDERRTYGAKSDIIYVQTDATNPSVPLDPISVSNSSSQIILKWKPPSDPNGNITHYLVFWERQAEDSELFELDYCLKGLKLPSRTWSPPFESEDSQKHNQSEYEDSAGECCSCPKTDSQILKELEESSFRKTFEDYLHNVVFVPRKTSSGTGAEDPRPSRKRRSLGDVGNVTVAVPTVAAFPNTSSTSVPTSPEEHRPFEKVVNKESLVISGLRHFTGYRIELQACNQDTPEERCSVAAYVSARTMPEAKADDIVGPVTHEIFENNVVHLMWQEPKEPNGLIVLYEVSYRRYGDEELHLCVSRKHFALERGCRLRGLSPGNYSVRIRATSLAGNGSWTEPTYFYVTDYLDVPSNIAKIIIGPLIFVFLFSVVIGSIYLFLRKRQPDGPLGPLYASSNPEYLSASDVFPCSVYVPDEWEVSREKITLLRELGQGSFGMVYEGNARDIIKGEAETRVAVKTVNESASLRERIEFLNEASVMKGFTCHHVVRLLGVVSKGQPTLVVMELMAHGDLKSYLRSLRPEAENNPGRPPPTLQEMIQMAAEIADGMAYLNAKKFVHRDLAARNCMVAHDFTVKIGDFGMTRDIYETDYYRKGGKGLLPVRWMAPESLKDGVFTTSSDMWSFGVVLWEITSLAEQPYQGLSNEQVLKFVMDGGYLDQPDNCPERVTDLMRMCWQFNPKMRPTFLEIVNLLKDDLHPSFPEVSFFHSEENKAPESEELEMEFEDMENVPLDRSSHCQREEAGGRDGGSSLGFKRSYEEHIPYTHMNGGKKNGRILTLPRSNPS
ALK, sequence (Q9UM73 19-1620): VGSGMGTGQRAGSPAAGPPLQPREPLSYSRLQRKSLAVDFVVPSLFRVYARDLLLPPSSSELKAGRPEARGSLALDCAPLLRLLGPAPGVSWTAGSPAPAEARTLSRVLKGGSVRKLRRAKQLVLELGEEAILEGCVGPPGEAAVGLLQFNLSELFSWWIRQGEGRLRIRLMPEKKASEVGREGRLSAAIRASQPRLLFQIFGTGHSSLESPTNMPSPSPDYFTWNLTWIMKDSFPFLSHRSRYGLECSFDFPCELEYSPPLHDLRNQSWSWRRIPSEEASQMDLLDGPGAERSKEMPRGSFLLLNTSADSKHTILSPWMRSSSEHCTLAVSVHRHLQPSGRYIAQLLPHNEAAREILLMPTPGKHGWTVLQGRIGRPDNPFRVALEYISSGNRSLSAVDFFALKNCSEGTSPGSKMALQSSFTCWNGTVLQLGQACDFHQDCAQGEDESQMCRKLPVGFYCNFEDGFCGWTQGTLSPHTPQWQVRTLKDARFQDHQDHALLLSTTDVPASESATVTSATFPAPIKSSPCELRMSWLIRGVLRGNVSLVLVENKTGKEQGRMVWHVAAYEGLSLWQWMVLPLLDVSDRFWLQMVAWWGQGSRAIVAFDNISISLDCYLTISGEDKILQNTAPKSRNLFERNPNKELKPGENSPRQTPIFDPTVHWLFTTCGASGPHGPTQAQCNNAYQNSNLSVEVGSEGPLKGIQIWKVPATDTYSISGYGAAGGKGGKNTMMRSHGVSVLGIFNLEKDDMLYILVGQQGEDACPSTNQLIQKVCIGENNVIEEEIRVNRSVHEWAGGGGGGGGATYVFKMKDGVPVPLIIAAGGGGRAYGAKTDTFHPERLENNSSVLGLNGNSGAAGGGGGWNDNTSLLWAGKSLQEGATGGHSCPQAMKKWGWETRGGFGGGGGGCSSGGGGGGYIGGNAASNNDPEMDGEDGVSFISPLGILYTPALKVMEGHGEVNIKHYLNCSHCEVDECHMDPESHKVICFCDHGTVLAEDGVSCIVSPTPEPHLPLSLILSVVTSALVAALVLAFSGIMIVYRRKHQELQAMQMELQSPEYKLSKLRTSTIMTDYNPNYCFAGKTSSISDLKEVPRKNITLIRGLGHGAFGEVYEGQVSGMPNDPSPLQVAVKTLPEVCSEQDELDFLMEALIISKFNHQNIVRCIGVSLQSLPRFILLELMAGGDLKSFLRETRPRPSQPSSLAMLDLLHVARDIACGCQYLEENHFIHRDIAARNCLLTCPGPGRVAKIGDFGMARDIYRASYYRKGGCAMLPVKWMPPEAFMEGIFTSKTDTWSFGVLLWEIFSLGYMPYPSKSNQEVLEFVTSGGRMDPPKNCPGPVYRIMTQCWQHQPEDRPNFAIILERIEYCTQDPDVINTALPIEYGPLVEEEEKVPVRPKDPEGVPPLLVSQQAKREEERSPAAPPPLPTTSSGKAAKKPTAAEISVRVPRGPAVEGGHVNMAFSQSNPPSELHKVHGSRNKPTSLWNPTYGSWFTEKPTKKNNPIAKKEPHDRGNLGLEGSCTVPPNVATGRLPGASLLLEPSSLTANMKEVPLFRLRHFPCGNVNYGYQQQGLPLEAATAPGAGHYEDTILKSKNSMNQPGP

pIC50 [1] | pIC50 [2] | pIC50 [3] | pIC50 [4] | SMILES
9.00 to 9.60 | > 6.60 | 6.30 to 7.00 | > 6.60 | CCCN1CCCC(c2ccc(Nc3nc(Nc4cc(F)ccc4C(N)=O)c4cc[nH]c4n3)c(OC)c2)C1 (stereo not drawn) [Example 71, 4-fluoro-2-[(2-{[2-(methyloxy)-4-(1-propyl-3-piperidinyl)phenyl]amino}-1H-pyrrolo[2,3-d]pyrimidin-4-yl)amino]benzamide]
9.00 to 9.60 | > 6.60 | > 7.00 | > 6.60 | CCCN1CCC(c2ccc(Nc3nc(Nc4cc(F)ccc4C(N)=O)c4cc[nH]c4n3)c(OC)c2)CC1 [Example 73, 4-fluoro-2-[(2-{[2-(methyloxy)-4-(1-propyl-4-piperidinyl)phenyl]amino}-1H-pyrrolo[2,3-d]pyrimidin-4-yl)amino]benzamide]
9.00 to 9.60 | > 6.60 | 6.30 to 7.00 | > 6.60 | COc1cc(N2CCN(CC3CC3)CC2)ccc1Nc1nc(Nc2cc(F)ccc2C(N)=O)c2cc[nH]c2n1 [Example 81, 2-[(2-{[4-[4-(cyclopropylmethyl)-1-piperazinyl]-2-(methyloxy)phenyl]amino}-1H-pyrrolo[2,3-d]pyrimidin-4-yl)amino]-4-fluorobenzamide]
6.70 to 8.30 | 6.00 to 6.60 | > 7.00 | < 6.00 | COc1cc(N2CCOCC2)ccc1Nc1nc(Nc2cc(F)ccc2C(N)=O)c2cc[nH]c2n1 [Example 83, 4-fluoro-2-[(2-{[2-(methyloxy)-4-(4-morpholinyl)phenyl]amino}-1H-pyrrolo[2,3-d]pyrimidin-4-yl)amino]benzamide]
9.00 to 9.60 | > 6.60 | 6.30 to 7.00 | 6.00 to 6.60 | COc1cc(N2CCN(C(C)C)CC2)ccc1Nc1nc(Nc2cc(Cl)cc(F)c2C(N)=O)c2cc[nH]c2n1 [Example 93, 4-chloro-2-fluoro-6-[(2-{[4-[4-(1-methylethyl)-1-piperazinyl]-2-(methyloxy)phenyl]amino}-1H-pyrrolo[2,3-d]pyrimidin-4-yl)amino]benzamide]
9.00 to 9.60 | > 6.60 | 6.30 to 7.00 | > 6.60 | COc1cc(N2CCN(C(C)C)CC2)ccc1Nc1nc(Nc2ccc(F)c(F)c2C(N)=O)c2cc[nH]c2n1 [Example 94, 2,3-difluoro-6-[(2-{[4-[4-(1-methylethyl)-1-piperazinyl]-2-(methyloxy)phenyl]amino}-1H-pyrrolo[2,3-d]pyrimidin-4-yl)amino]benzamide]
9.00 to 9.60 | > 6.60 | > 7.00 | > 6.60 | COc1cc(C2CCN(C(C)C)CC2)ccc1Nc1nc(Nc2cc(F)c(F)cc2C(N)=O)c2cc[nH]c2n1 [Example 97, 4,5-difluoro-2-[(2-{[4-[1-(1-methylethyl)-4-piperidinyl]-2-(methyloxy)phenyl]amino}-1H-pyrrolo[2,3-d]pyrimidin-4-yl)amino]benzamide]
9.00 to 9.60 | > 6.60 | > 7.00 | > 6.60 | CCCN1CCC(c2ccc(Nc3nc(Nc4cc(F)c(F)cc4C(N)=O)c4cc[nH]c4n3)c(OC)c2)CC1 [Example 98, 4,5-difluoro-2-[(2-{[2-(methyloxy)-4-(1-propyl-4-piperidinyl)phenyl]amino}-1H-pyrrolo[2,3-d]pyrimidin-4-yl)amino]benzamide]
9.00 to 9.60 | > 6.60 | 6.30 to 7.00 | > 6.60 | COc1cc(N2CCC(N3CCN(S(C)(=O)=O)CC3)CC2)ccc1Nc1nc(Nc2cccc(F)c2C(N)=O)c2cc[nH]c2n1 [Example 113, 2-fluoro-6-({2-[(2-(methyloxy)-4-{4-[4-(methylsulfonyl)-1-piperazinyl]-1-piperidinyl}phenyl)amino]-1H-pyrrolo[2,3-d]pyrimidin-4-yl}amino)benzamide]
8.40 to 8.90 | > 6.60 | > 7.00 | > 6.60 | COc1cc(N2CCC(N3CCN(CCF)CC3)CC2)ccc1Nc1nc(Nc2cccc(F)c2C(N)=O)c2cc[nH]c2n1 [Example 114, 2-fluoro-6-[(2-{[4-{4-[4-(2-fluoroethyl)-1-piperazinyl]-1-piperidinyl}-2-(methyloxy)phenyl]amino}-1H-pyrrolo[2,3-d]pyrimidin-4-yl)amino]benzamide]
9.00 to 9.60 | > 6.60 | 6.30 to 7.00 | > 6.60 | COc1cc(N2CCC(N3CCN(CCS(C)(=O)=O)CC3)CC2)ccc1Nc1nc(Nc2cccc(F)c2C(N)=O)c2cc[nH]c2n1 [Example 115, 2-fluoro-6-[(2-{[2-(methyloxy)-4-(4-{4-[2-(methylsulfonyl)ethyl]-1-piperazinyl}-1-piperidinyl)phenyl]amino}-1H-pyrrolo[2,3-d]pyrimidin-4-yl)amino]benzamide]
8.40 to 8.90 | > 6.60 | 6.30 to 7.00 | 6.00 to 6.60 | COc1cc2c(cc1Nc1nc(Nc3cccc(F)c3C(N)=O)c3cc[nH]c3n1)CN(C(=O)CN(C)C)CC2 [Example 123, 2-[(2-{[2-(N,N-dimethylglycyl)-6-(methyloxy)-1,2,3,4-tetrahydro-7-isoquinolinyl]amino}-1H-pyrrolo[2,3-d]pyrimidin-4-yl)amino]-6-fluorobenzamide]
9.00 to 9.60 | > 6.60 | 6.30 to 7.00 | 6.00 to 6.60 | CCNC(=O)c1c(F)cccc1Nc1nc(Nc2cc3c(cc2OC)CCN3C(=O)CN(C)C)nc2[nH]ccc12 [Example 126, 2-[(2-{[1-(N,N-dimethylglycyl)-5-(methyloxy)-2,3-dihydro-1H-indol-6-yl]amino}-1H-pyrrolo[2,3-d]pyrimidin-4-yl)amino]-N-ethyl-6-fluorobenzamide]
9.00 to 9.60 | > 6.60 | > 7.00 | 6.00 to 6.60 | CNC(=O)c1c(F)cccc1Nc1nc(Nc2cc3c(cc2OC)C(C)(C)CN3C(=O)CN(C)C)nc2[nH]ccc12 [Example 127, 2-[(2-{[1-(N,N-dimethylglycyl)-3,3-dimethyl-5-(methyloxy)-2,3-dihydro-1H-indol-6-yl]amino}-1H-pyrrolo[2,3-d]pyrimidin-4-yl)amino]-6-fluoro-N-methylbenzamide]
8.40 to 8.90 | > 6.60 | > 7.00 | 6.00 to 6.60 | CCN(CC)CC(=O)N1CCc2cc(OC)c(Nc3nc(Nc4cccc(F)c4C(N)=O)c4cc[nH]c4n3)cc21 [Example 136, 2-[(2-{[1-(N,N-diethylglycyl)-5-(methyloxy)-2,3-dihydro-1H-indol-6-yl]amino}-1H-pyrrolo[2,3-d]pyrimidin-4-yl)amino]-6-fluorobenzamide]
8.40 to 8.90 | > 6.60 | > 7.00 | 6.00 to 6.60 | COc1cc2c(cc1Nc1nc(Nc3cccc(F)c3C(N)=O)c3cc[nH]c3n1)N(C(=O)CN1CCCC1)CC2 [Example 138, 2-fluoro-6-[(2-{[5-(methyloxy)-1-(1-pyrrolidinylacetyl)-2,3-dihydro-1H-indol-6-yl]amino}-1H-pyrrolo[2,3-d]pyrimidin-4-yl)amino]benzamide]
9.00 to 9.60 | > 6.60 | 6.30 to 7.00 | 6.00 to 6.60 | CNC(=O)c1c(F)cccc1Nc1nc(Nc2cc3c(cc2OC)CCN3C(=O)CN2CCCC2)nc2[nH]ccc12 [Example 139, 2-fluoro-N-methyl-6-[(2-{[5-(methyloxy)-1-(1-pyrrolidinylacetyl)-2,3-dihydro-1H-indol-6-yl]amino}-1H-pyrrolo[2,3-d]pyrimidin-4-yl)amino]benzamide]
8.40 to 8.90 | 6.00 to 6.60 | < 6.30 | 6.00 to 6.60 | COc1cc2c(cc1Nc1nc(Nc3cccc(F)c3C(N)=O)c3cc[nH]c3n1)N(C(=O)CN)CC2 [Example 141, 2-fluoro-6-[(2-{[1-glycyl-5-(methyloxy)-2,3-dihydro-1H-indol-6-yl]amino}-1H-pyrrolo[2,3-d]pyrimidin-4-yl)amino]benzamide]
8.40 to 8.90 | 6.00 to 6.60 | 6.30 to 7.00 | 6.00 to 6.60 | CNCC(=O)N1CCc2cc(OC)c(Nc3nc(Nc4cccc(F)c4C(N)=O)c4cc[nH]c4n3)cc21 [Example 142, 2-fluoro-6-[(2-{[1-(N-methylglycyl)-5-(methyloxy)-2,3-dihydro-1H-indol-6-yl]amino}-1H-pyrrolo[2,3-d]pyrimidin-4-yl)amino]benzamide]
9.00 to 9.60 | < 6.00 | < 6.30 | < 6.00 | COc1cc2c(cc1Nc1nc(Nc3cc(F)cc(F)c3C(=O)NC(C)C)c3cc[nH]c3n1)N(C(=O)CN(C)C)CC2 [Example 153, 2-[(2-{[1-(N,N-dimethylglycyl)-5-(methyloxy)-2,3-dihydro-1H-indol-6-yl]amino}-1H-pyrrolo[2,3-d]pyrimidin-4-yl)amino]-4,6-difluoro-N-(1-methylethyl)benzamide]
8.40 to 8.90 | 6.00 to 6.60 | < 6.30 | < 6.00 | COc1cc2c(cc1Nc1nc(Nc3cc(F)cc(F)c3C(=O)NCC(C)C)c3cc[nH]c3n1)N(C(=O)CN(C)C)CC2 [Example 154, 2-[(2-{[1-(N,N-dimethylglycyl)-5-(methyloxy)-2,3-dihydro-1H-indol-6-yl]amino}-1H-pyrrolo[2,3-d]pyrimidin-4-yl)amino]-4,6-difluoro-N-(2-methylpropyl)benzamide]
